Reference: ChEMBL document CHEMBL1145278, “Inhibitors of HCV NS5B polymerase. Part 2: Evaluation of the northern region of (2Z)-2-benzoylamino-3-(4-phenoxy-phenyl)-acrylic acid” (Bioorg Med Chem Lett, 2005)

How the values were obtained:
[1] = target: RNA-directed RNA polymerase (Hepacivirus hominis) (UniProt O39930); assay: Effective dose for RNA dependent RNA polymerase Nonstructural protein 5B (HCV NS5B polymerase) in Hepatitis C virus
[2] = target: RNA-directed RNA polymerase (Hepacivirus hominis, UniProt O39930); assay: Inhibitory concentration against RNA dependent RNA polymerase Nonstructural protein 5B (HCV NS5B polymerase) in Hepatitis C virus
Sequence of RNA-directed RNA polymerase (O39930 whole entry): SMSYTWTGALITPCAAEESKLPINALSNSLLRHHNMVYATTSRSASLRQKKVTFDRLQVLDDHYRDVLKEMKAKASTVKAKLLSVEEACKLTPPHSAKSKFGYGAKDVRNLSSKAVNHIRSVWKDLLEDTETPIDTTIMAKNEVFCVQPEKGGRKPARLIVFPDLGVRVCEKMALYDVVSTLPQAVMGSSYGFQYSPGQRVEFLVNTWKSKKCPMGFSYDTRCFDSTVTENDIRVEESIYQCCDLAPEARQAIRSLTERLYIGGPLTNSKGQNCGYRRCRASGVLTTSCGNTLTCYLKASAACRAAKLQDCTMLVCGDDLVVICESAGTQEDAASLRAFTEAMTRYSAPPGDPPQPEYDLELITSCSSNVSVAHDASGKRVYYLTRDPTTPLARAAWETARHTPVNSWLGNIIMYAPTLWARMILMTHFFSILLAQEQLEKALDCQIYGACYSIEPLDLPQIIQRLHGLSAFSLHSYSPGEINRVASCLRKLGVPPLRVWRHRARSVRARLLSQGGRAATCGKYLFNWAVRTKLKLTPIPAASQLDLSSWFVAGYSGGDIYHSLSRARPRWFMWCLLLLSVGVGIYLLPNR

[3] = target: RNA-directed RNA polymerase (Hepacivirus hominis) (UniProt O39930); assay: Cytotoxic concentration against RNA dependent RNA polymerase Nonstructural protein 5B (HCV NS5B polymerase) in Hepatitis C virus
[4] = target: RNA-directed RNA polymerase (Hepacivirus hominis) (UniProt O39930); assay: Ratio for cellular to RNA dependent RNA polymerase Nonstructural protein 5B activity in Hepatitis C virus
Rattus norvegicus [5] = assay: Oral bioavailability in rat; type: functional, organism-based
Rattus norvegicus [6] = assay: Half life was determined upon oral administration to rat; type: functional, organism-based
[7] = Clearance measured in Sprague Dawley rat dosed at 5mg/kg; type: ADME, organism-based; details: in vivo
[8] = Maximum concentration upon oral administration to rat at 5 mg/kg; type: ADME, organism-based; set-up: dose 5 mg/kg, route oral; details: in vivo

Sequence of RNA-directed RNA polymerase (Hepacivirus hominis) (O39930 1-591): as the sequence (O39930 whole entry) above

O=C(CCc1ccc(C(F)(F)F)cc1)N/C(=C\c1ccc(Oc2ccccc2Br)cc1)C(=O)O
ED50 [1]: > 100 µM | IC50 [2]: 0.37 µM | CC50 [3]: > 100 µM

NC(=O)/C(=C/c1ccc(Oc2ccccc2Br)cc1)NC(=O)c1ccccc1
ED50 [1]: 20 µM | IC50 [2]: 0.5 µM | CC50 [3]: 45 µM

O=C(Cc1ccc(Br)cc1)N/C(=C\c1ccc(Oc2ccccc2Br)cc1)C(=O)O
ED50 [1]: > 100 µM | IC50 [2]: 0.82 µM | CC50 [3]: > 100 µM

O=C(O)/C(=C/c1ccc(Oc2ccccc2Br)cc1)NC(=O)c1ccc(F)cc1F
ED50 [1]: > 100 µM | IC50 [2]: 0.23 µM | CC50 [3]: > 100 µM

O=C(CC1CCCC1)N/C(=C\c1ccc(Oc2ccccc2Br)cc1)C(=O)O
ED50 [1]: > 100 µM | IC50 [2]: 0.85 µM

O=C(CCc1ccc(F)cc1)N/C(=C\c1ccc(Oc2ccccc2Br)cc1)C(=O)O
ED50 [1]: > 100 µM | IC50 [2]: 0.6 µM | CC50 [3]: > 100 µM

NNC(=O)/C(=C/c1ccc(Oc2ccccc2Br)cc1)NC(=O)c1ccccc1
ED50 [1]: > 50 µM | IC50 [2]: 1 µM | CC50 [3]: > 50 µM

Cc1ccc(C(=O)N/C(=C\c2ccc(Oc3ccccc3Br)cc2)C(=O)O)cc1
ED50 [1]: > 100 µM | IC50 [2]: 0.25 µM | CC50 [3]: > 100 µM

O=C(CCc1ccc(Cl)cc1)N/C(=C\c1ccc(Oc2ccccc2Br)cc1)C(=O)O
ED50 [1]: > 100 µM | IC50 [2]: 0.5 µM | CC50 [3]: > 100 µM

O=C(O)/C(=C/c1ccc(Oc2ccccc2I)cc1)NC(=O)C1CC1
ED50 [1]: > 100 µM | IC50 [2]: 2.8 µM

O=C(Cc1ccc(I)cc1)N/C(=C\c1ccc(Oc2ccccc2Br)cc1)C(=O)O
ED50 [1]: > 100 µM | IC50 [2]: 1 µM | CC50 [3]: > 100 µM

O=C(Nc1ccccc1O)/C(=C/c1ccc(Oc2ccccc2Br)cc1)NC(=O)c1ccccc1
ED50 [1]: > 50 µM | IC50 [2]: 15 µM | CC50 [3]: > 50 µM

O=C(CCC1CCCC1)N/C(=C\c1ccc(Oc2ccccc2Br)cc1)C(=O)O
ED50 [1]: 12 µM | IC50 [2]: 6 µM | CC50 [3]: > 100 µM | Ratio [4]: 2

O=C(O)CCC(=O)N/C(=C\c1ccc(Oc2ccccc2I)cc1)C(=O)O
ED50 [1]: > 100 µM | IC50 [2]: 0.79 µM

O=C(O)/C(=C/c1ccc(Oc2ccccc2Br)cc1)NC(=O)c1ccc(Br)cc1
ED50 [1]: > 100 µM | IC50 [2]: 0.12 µM | CC50 [3]: > 100 µM

Cc1ccc(CCC(=O)N/C(=C\c2ccc(Oc3ccccc3Br)cc2)C(=O)O)cc1
ED50 [1]: > 100 µM | IC50 [2]: 2.6 µM | CC50 [3]: > 100 µM

O=C(O)CCCC(=O)N/C(=C\c1ccc(Oc2ccccc2I)cc1)C(=O)O
ED50 [1]: > 100 µM | IC50 [2]: 0.83 µM

O=C(O)/C(=C/c1ccc(Oc2ccccc2Br)cc1)NC(=O)c1ccc(Cl)cc1
ED50 [1]: > 100 µM | IC50 [2]: 0.11 µM | CC50 [3]: > 100 µM

O=C(O)/C(=C/c1ccc(Oc2ccccc2I)cc1)NC(=O)C(O)c1ccccc1 (stereo unspecified)
ED50 [1]: > 100 µM | IC50 [2]: 3.1 µM

O=C(O)/C(=C/c1ccc(Oc2ccccc2Br)cc1)NC(=O)C1CC2CCC1C2 (stereo unspecified)
ED50 [1]: > 100 µM | IC50 [2]: 0.1 µM

O=C(NCc1ccccc1)/C(=C/c1ccc(Oc2ccccc2Br)cc1)NC(=O)c1ccccc1
ED50 [1]: > 50 µM | IC50 [2]: > 100 µM | CC50 [3]: > 50 µM

O=C(NCCO)/C(=C/c1ccc(Oc2ccccc2Br)cc1)NC(=O)c1ccccc1
bioavailability (Rattus norvegicus [5]): 76% | T1/2 (Rattus norvegicus [6]): 1 h | clearance [7]: 53.3 mL/min/kg | ED50 [1]: 8 µM | IC50 [2]: 2.7 µM | Cmax [8]: 1.5 µM | CC50 [3]: > 50 µM | Ratio [4]: 3

O=C(CCC1CCCC1)N/C(=C\c1ccc(Oc2ccccc2I)cc1)C(=O)O
ED50 [1]: 15 µM | IC50 [2]: 7 µM | Ratio [4]: 2

Nc1ccc(Oc2ccc(/C=C(\NC(=O)CCC3CCCC3)C(=O)O)cc2)c(C(F)(F)F)c1
ED50 [1]: 5 µM | IC50 [2]: 14 µM | CC50 [3]: > 50 µM | Ratio [4]: 0.4

O=C(O)/C(=C/c1ccc(Oc2ccccc2Br)cc1)NC(=O)c1ccccc1O
ED50 [1]: > 100 µM | IC50 [2]: 0.08 µM | CC50 [3]: > 100 µM

O=C(Cc1ccc(Cl)cc1)N/C(=C\c1ccc(Oc2ccccc2Br)cc1)C(=O)O
ED50 [1]: > 100 µM | IC50 [2]: 0.94 µM | CC50 [3]: > 100 µM

O=C(O)/C(=C/c1ccc(Oc2ccccc2Br)cc1)NC(=O)c1ccc(F)c(F)c1
ED50 [1]: > 100 µM | IC50 [2]: 0.23 µM | CC50 [3]: > 100 µM

O=C(CCC1CCCC1)N/C(=C\c1ccc(Oc2ccccc2C(F)(F)F)cc1)C(=O)O
ED50 [1]: 5 µM | IC50 [2]: 6.3 µM | CC50 [3]: > 100 µM | Ratio [4]: 0.7

O=C(Nc1cccc(O)c1)/C(=C/c1ccc(Oc2ccccc2Br)cc1)NC(=O)c1ccccc1
ED50 [1]: 15 µM | IC50 [2]: 1.9 µM | CC50 [3]: 25 µM

CC(O)C(=O)N/C(=C\c1ccc(Oc2ccccc2I)cc1)C(=O)O (stereo unspecified)
ED50 [1]: > 100 µM | IC50 [2]: 4.8 µM

O=C(Cc1ccc(F)cc1)N/C(=C\c1ccc(Oc2ccccc2Br)cc1)C(=O)O
ED50 [1]: > 100 µM | IC50 [2]: 2.2 µM | CC50 [3]: > 100 µM

O=C(O)/C(=C/c1ccc(Oc2ccccc2Br)cc1)NC(=O)c1ccccc1
bioavailability (Rattus norvegicus [5]): 21% | T1/2 (Rattus norvegicus [6]): 1.5 h | clearance [7]: 3.33 mL/min/kg | ED50 [1]: 28 µM | Cmax [8]: 9 µM | CC50 [3]: > 100 µM | Ratio [4]: 280

O=C(CO)N/C(=C\c1ccc(Oc2ccccc2I)cc1)C(=O)O
ED50 [1]: > 100 µM | IC50 [2]: 2 µM

O=C(O)/C(=C/c1ccc(Oc2ccccc2Br)cc1)NC(=O)c1ccccc1F
ED50 [1]: > 100 µM | IC50 [2]: 0.18 µM | CC50 [3]: > 100 µM

O=C(O)/C(=C/c1ccc(Oc2c(F)cccc2Br)cc1)NC(=O)c1ccccc1
ED50 [1]: 60 µM

O=C(Nc1ccccc1C(=O)O)/C(=C/c1ccc(Oc2ccccc2Br)cc1)NC(=O)c1ccccc1
ED50 [1]: > 50 µM | IC50 [2]: 0.4 µM | CC50 [3]: > 50 µM

CONC(=O)/C(=C/c1ccc(Oc2ccccc2Br)cc1)NC(=O)c1ccccc1
ED50 [1]: > 50 µM | IC50 [2]: 0.8 µM | CC50 [3]: 22 µM

O=C(O)/C(=C/c1ccc(Oc2ccccc2Br)cc1)NC(=O)C1CCCCC1
ED50 [1]: > 100 µM | IC50 [2]: 0.2 µM

O=C(Nc1ccccc1)/C(=C/c1ccc(Oc2ccccc2Br)cc1)NC(=O)c1ccccc1
ED50 [1]: > 50 µM | IC50 [2]: > 100 µM | CC50 [3]: > 50 µM

O=C(CC1CCCCC1)N/C(=C\c1ccc(Oc2ccccc2Br)cc1)C(=O)O
ED50 [1]: > 100 µM | IC50 [2]: 2.2 µM

O=C(O)CNC(=O)/C(=C/c1ccc(Oc2ccccc2Br)cc1)NC(=O)c1ccccc1
ED50 [1]: > 50 µM | IC50 [2]: 0.06 µM | CC50 [3]: > 50 µM

CCc1ccccc1Oc1ccc(/C=C(\NC(=O)CCC2CCCC2)C(=O)O)cc1
ED50 [1]: 15 µM | IC50 [2]: 7.1 µM | CC50 [3]: > 100 µM | Ratio [4]: 2

CCc1ccccc1C(=O)N/C(=C\c1ccc(Oc2ccccc2Br)cc1)C(=O)O
ED50 [1]: 70 µM | IC50 [2]: 0.05 µM | CC50 [3]: > 100 µM

O=C(CCC1CCCCC1)N/C(=C\c1ccc(Oc2ccccc2Br)cc1)C(=O)O
ED50 [1]: > 100 µM | IC50 [2]: 13 µM

O=C(O)/C(=C/c1ccc(Oc2ccccc2Br)cc1)NC(=O)c1cccc(F)c1
ED50 [1]: 53 µM | IC50 [2]: 0.09 µM | CC50 [3]: > 100 µM

O=C(Nc1ccc(O)cc1)/C(=C/c1ccc(Oc2ccccc2Br)cc1)NC(=O)c1ccccc1
ED50 [1]: > 50 µM | IC50 [2]: 12 µM | CC50 [3]: 22 µM

O=C(Cc1ccc(C(F)(F)F)cc1)N/C(=C\c1ccc(Oc2ccccc2Br)cc1)C(=O)O
ED50 [1]: > 100 µM | IC50 [2]: 1 µM | CC50 [3]: 18 µM

O=C(CCC1CCCC1)N/C(=C\c1ccc(Oc2ccc(F)cc2Br)cc1)C(=O)O
ED50 [1]: 12 µM | IC50 [2]: 15 µM | CC50 [3]: > 100 µM | Ratio [4]: 0.8

O=C(O)/C(=C/c1ccc(Oc2ccccc2Br)cc1)NC(=O)C12CC3CC(CC(C3)C1)C2
ED50 [1]: > 100 µM
